In patent US11319322B2, “Substituted aryl ether compound, preparation method thereof, pharmaceutical composition and use thereof” (Xiamen University, priority 2017, dated 2022) one finds GI50 and IC50 data, which are given here for 30 compounds.

Holding throughout (type): cell-based
The target in one test is T1, CCDC6-RET-BaF3 (Homo sapiens, UniProt P07949).
T1 construct: fused on or other part: Q16204 (Coiled-coil domain-containing protein 6)
Put plainly: Growth inhibition of CCDC6-RET-BaF3 cells stably transfected with kinase (MTS). Conditions: 48 h, read-out: CCDC6-RET (IC50/nM). The essentials: (§1)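 IC50 derived from growth inhibition by MTS absorbance at 490 nm after 48 h compound exposure (top 10 μM, 1:3 steps, 8 points, 0.1% DMSO) of 2×10^4 RET-fusion (CCDC6-RET, KIF5B-RET) or wild-type BaF3 cells per well, in triplicate.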

The target in the next test is T2, KIF5B-RET-BaF3 (Homo sapiens, UniProt P07949).
T2 construct: fused on or other part: P33176 (Kinesin-1 heavy chain)
T2 sequence (P07949 whole entry, change not shown, the tested form may be a part): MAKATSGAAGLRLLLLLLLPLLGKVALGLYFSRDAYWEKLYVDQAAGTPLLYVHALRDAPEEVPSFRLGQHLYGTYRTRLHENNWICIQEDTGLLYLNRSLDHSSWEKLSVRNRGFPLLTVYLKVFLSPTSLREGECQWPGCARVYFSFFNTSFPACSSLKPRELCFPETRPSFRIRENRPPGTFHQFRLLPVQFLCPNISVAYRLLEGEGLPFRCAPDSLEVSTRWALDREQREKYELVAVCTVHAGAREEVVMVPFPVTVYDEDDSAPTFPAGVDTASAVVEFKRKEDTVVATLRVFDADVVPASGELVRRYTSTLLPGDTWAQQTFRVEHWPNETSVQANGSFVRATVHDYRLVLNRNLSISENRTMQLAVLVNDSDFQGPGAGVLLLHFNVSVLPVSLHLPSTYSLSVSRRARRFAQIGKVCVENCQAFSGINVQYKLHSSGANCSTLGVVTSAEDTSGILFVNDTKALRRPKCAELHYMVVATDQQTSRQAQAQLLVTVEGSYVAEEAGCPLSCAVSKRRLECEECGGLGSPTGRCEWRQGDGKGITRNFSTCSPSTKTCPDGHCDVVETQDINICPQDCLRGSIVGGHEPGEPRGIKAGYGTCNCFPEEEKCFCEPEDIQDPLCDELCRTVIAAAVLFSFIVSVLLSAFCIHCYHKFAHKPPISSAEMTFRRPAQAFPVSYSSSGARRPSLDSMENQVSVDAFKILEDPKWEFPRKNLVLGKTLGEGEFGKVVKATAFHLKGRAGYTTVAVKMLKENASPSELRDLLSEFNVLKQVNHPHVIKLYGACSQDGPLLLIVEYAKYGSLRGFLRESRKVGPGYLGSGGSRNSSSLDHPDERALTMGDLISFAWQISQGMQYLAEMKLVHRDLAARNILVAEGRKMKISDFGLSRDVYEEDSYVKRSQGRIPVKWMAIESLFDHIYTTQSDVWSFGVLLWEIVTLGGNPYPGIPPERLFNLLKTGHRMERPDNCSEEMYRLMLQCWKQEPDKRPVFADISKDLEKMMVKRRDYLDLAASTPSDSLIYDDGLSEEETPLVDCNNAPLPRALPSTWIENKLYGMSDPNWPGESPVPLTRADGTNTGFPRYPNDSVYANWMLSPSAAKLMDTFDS
Briefly: Growth inhibition of KIF5B-RET-BaF3 cells stably transfected with kinase (MTS). The note with it: 48 h, read-out: KIF5B-RET (IC50/nM). The essentials: as §1

A further test relates to wild-type BaF3. Briefly: Growth inhibition of wild-type BaF3 cells, broad-spectrum toxicity (MTS). The note with it: Mus musculus, 48 h, read-out: WT Ba/F3 (IC50/nM). How it is done: Growth inhibitory activity of compounds on cell lines stably transfected with kinase
The activity of compounds against kinase RET is evaluated by their effect of inhibiting growth of cell lines stably transfected with kinase CCDC6-RET-BaF3, KIF5B-RET-BaF3, and wild-type BaF3 (Proc. Natl. Acad. Sci. USA., 2006, 103, 3153-8.). The growth of the cell lines stably transfected with kinase CCDC6-RET-BaF3, KIF5B-RET-BaF3 depends on their kinase activity. If a compound can inhibit the activity of the kinase RET per se or the activity of the RET signaling pathway, the compound can inhibit the growth of BaF3 cells stably transfected with kinase. […] Therefore, a larger ratio between IC50 of a compound to wild-type BaF3 and IC50 of the compound to the cell lines stably transfected with kinase CCDC6-RET-BaF3, KIF5B-RET-BaF3 indicates better targeting.
The specific test method is given as follows:
1) Medium: DMEM (Dulbecco's modified eagle medium) or RPMI 1640 (containing 10% fetal bovine serum, 100 μg/mL ampicillin, 100 μg/mL streptomycin).
2) Reagents: MTS reaction solution (containing 2 mg/mL of MTS [3-(4,5-dimethylthiazol-2-yl)-5-(3-carboxymethoxyphenyl)-2-(4-sulfophenyl)-2H-tetrazolium, inner Salt]; 100 μg/mL PES (phenazine […])).
3) Compound test: cells stably transfected with kinase (CCDC6-RET-BaF3, KIF5B-RET-BaF3) or wild-type BaF3 cells (2×10^4 cells/well) were incubated into a 96-well culture plate, the volume of cell culture fluid was 90 μL, and then 10 μL of the compound at each gradient concentration was added (the highest concentration was 10 μM, which was diluted stepwise by ⅓, and 8 concentration points were set in total; the system contained 0.1% DMSO (dimethyl sulfoxide)). The cell plate with uniformly mixed compound was cultured in a cell culture incubator (37° C.; 5% CO2) for 48 h, then 20 μL of MTS reaction solution was added, uniformly mixed and incubated in the cell culture incubator (37° C.; 5% CO2) for 1-4 hr, OD values at 490 nm were measured by a microplate reader (VARIOSKAN FLASH, Thermo). Three parallels were set in each group of experiments, with 0.1% (a final concentration) DMSO as a negative control, and a medium without cells or compounds as a blank control. The cell growth inhibition rate was calculated by the following formula: Cell growth inhibition rate %=1−(ODexperimental group−ODblank group)/(ODnegative group−ODblank group)×100%
4) IC50 calculation: The semi-inhibitory concentration of the compound acting on cell growth was calculated using GradPad Prism 5 software according to the measured cell growth inhibition rate.

Molecules are shown by their SMILES.

T1 sequence (P07949 whole entry, change not shown, the tested form may be a part): as above

In the case of `Cc1ccc(Oc2nc(-c3ccccc3)nc3cc[nH]c23)cc1NC(=O)c1ccc(CN2CCN(C)CC2)c(C(F)(F)F)c1` [III-j-3], the figures for the GI50 at CCDC6-RET-BaF3 and at KIF5B-RET-BaF3 were 2480 nM and 2350 nM, respectively. Further, the IC50 in the test on wild-type BaF3 was found to be 3780 nM.
For `Cc1ccc(Oc2nc(-c3cccnc3)nc3ccsc23)cc1NC(=O)c1ccc(CN2CCN(C)CC2)c(C(F)(F)F)c1` [VI-j-1], in that order: 2700 nM, 3960 nM and 3380 nM.
For `Cc1ccc(C(=O)Nc2ccc(CN3CCN(C)CC3)c(C(F)(F)F)c2)cc1Oc1nc(-c2ccncc2)nc2[nH]cnc12` [I-m-1], the GI50 on CCDC6-RET-BaF3 was 504 nM; on KIF5B-RET-BaF3, 810 nM. Moreover, in the test with wild-type BaF3, the IC50 was > 10000 nM.
Turning to `Cc1ccc(-c2nc(Oc3cc(C(=O)Nc4ccc(CN5CCN(C)CC5)c(C(F)(F)F)c4)ccc3C)c3[nH]ccc3n2)cc1` [III-m-4], the GI50 is 2720 nM on CCDC6-RET-BaF3 and 3860 nM at KIF5B-RET-BaF3. Further, in the test on wild-type BaF3, the IC50 was 3460 nM.
With `Cc1ccc(C(=O)Nc2ccc(CN3CCN(C)CC3)c(C(F)(F)F)c2)cc1Oc1nc(-c2ccsc2)nc2ccn(C)c12` [III-m-18], the figures for the GI50 on CCDC6-RET-BaF3 and at KIF5B-RET-BaF3 were 2960 nM and 2680 nM, respectively. Also, the IC50 with wild-type BaF3 worked out at 3510 nM.
On to `Cc1ccc(Oc2nc(-c3cccnc3)nc3[nH]ncc23)cc1NC(=O)c1ccc(CN2CCN(C)CC2)c(C(F)(F)F)c1` [II-j-5], for which the GI50 at CCDC6-RET-BaF3 was 2370 nM; at KIF5B-RET-BaF3, 3890 nM. Further, in the test on wild-type BaF3, the IC50 worked out at 7400 nM.
`CN1CCN(Cc2cc(NC(=O)c3cccc(Oc4nc(-c5cccnc5)nc5cc[nH]c45)c3)cc(C(F)(F)F)c2)CC1` [III-p-1]: the GI50 came to 4400 nM at CCDC6-RET-BaF3 and 2920 nM at KIF5B-RET-BaF3. For the same compound, the IC50 in the test on wild-type BaF3 worked out at 3550 nM.
With `Cc1ccc(C(=O)Nc2cc(CN3CCN(C)CC3)cc(C(F)(F)F)c2)cc1Oc1nc(-c2cccnc2)nc2ccsc12` [VI-q-1], the GI50 was found to be 3570 nM at CCDC6-RET-BaF3 and 3430 nM on KIF5B-RET-BaF3. In the test with wild-type BaF3, the IC50 worked out at 4360 nM.
For `Cc1ccc(C(=O)Nc2ccc(CN3CCN(C)CC3)c(C(F)(F)F)c2)cc1Oc1cc(-c2cccnc2)nc2c1ccn2C` [V-m-3], in that order: 1170 nM, 613 nM and 3370 nM.
For `CN1CCN(Cc2ccc(NC(=O)c3cccc(Oc4nc(-c5ccncc5)nc5c4ncn5C)c3)cc2C(F)(F)F)CC1` [I-l-3], in that order: 25.2 nM, 5.88 nM and > 10000 nM.
For `CNc1nc(Oc2cc(C(=O)Nc3ccc(CN4CCN(C)CC4)c(C(F)(F)F)c3)ccc2C)c2c(ccn2C)n1` [III-m-19], in that order: 2510 nM, 3270 nM and 4020 nM.
Take `Cc1ccc(C(=O)Nc2cccc(C(F)(F)F)c2)cc1Oc1nc(-c2ccncc2)nc2nn(C)cc12` [IV-e-2]: the GI50 was 2910 nM on CCDC6-RET-BaF3 and 8450 nM at KIF5B-RET-BaF3. In addition, in the test on wild-type BaF3, the IC50 worked out at 2220 nM.
For `CN1CCN(Cc2ccc(C(=O)Nc3cccc(Oc4nc(-c5ccncc5)nc5[nH]ncc45)c3)cc2C(F)(F)F)CC1` [II-h-4], the GI50 on CCDC6-RET-BaF3 amounted to 78.6 nM; on KIF5B-RET-BaF3 it was 300 nM. In the test on wild-type BaF3, the IC50 was 3930 nM.
With `Cc1ccc(Oc2nc(-c3ccncc3)nc3cc[nH]c23)cc1C(=O)Nc1cc(CN2CCN(C)CC2)cc(C(F)(F)F)c1` [III-r-2], the GI50 came to 386 nM at CCDC6-RET-BaF3 and 535 nM on KIF5B-RET-BaF3. Moreover, the IC50 in the test with wild-type BaF3 was 4130 nM.
Turning to `Cc1ccc(C(=O)Nc2ccc(CN3CCN(C)CC3)c(C(F)(F)F)c2)cc1Oc1nc(N2CCOCC2)nc2ccn(C)c12` [III-m-20], the figures for the GI50 on CCDC6-RET-BaF3 and at KIF5B-RET-BaF3 were 2960 nM and 2500 nM, respectively. Besides, in the test on wild-type BaF3, the IC50 was 3550 nM.
For `CN1CCN(Cc2ccc(C(=O)Nc3cc(Oc4nc(-c5ccncc5)nc5cc[nH]c45)ccc3Cl)cc2C(F)(F)F)CC1` [III-k-2], in that order: 0.79 nM, 17.2 nM and 1340 nM.
For `Cc1ccc(C(=O)Nc2ccc(CN3CCN(C)CC3)c(C(F)(F)F)c2)cc1Oc1nc(-c2ccoc2)nc2cc[nH]c12` [III-m-8], in that order: 1240 nM, 1710 nM and 4100 nM.
Regarding `CN1CCN(Cc2ccc(C(=O)Nc3cc(Oc4nc(-c5ccccc5)nc5ccn(C)c45)ccc3Cl)cc2C(F)(F)F)CC1` [III-k-18], the GI50 was 4120 nM on CCDC6-RET-BaF3 and 3990 nM on KIF5B-RET-BaF3. Besides, the IC50 with wild-type BaF3 amounted to 3890 nM.
For the compound `CN1CCN(Cc2ccc(C(=O)Nc3cc(Oc4nc(-c5ccc(N)cc5)nc5cc[nH]c45)ccc3Cl)cc2C(F)(F)F)CC1` [III-k-11], the GI50 on CCDC6-RET-BaF3 was found to be 451 nM; on KIF5B-RET-BaF3, 496 nM. The IC50 in the test on wild-type BaF3 stood at 1290 nM.
For `Cc1ccc(Oc2nc(-c3ccncc3)nc3ccn(C)c23)cc1C(=O)Nc1cc(CN2CCN(C)CC2)cc(C(F)(F)F)c1` [III-r-4], in that order: 187 nM, 325 nM and 1380 nM.
Take `Cc1ccc(Oc2nc(-c3ccoc3)nc3c2ncn3C)cc1NC(=O)c1ccc(CN2CCN(C)CC2)c(C(F)(F)F)c1` [I-j-6]: the results for the GI50 at CCDC6-RET-BaF3 and on KIF5B-RET-BaF3 were 221 nM and 1180 nM, respectively. Besides, the IC50 in the test on wild-type BaF3 stood at 4220 nM.
For the compound `CN1CCN(Cc2ccc(C(=O)Nc3cc(Oc4nc(-c5ccc(Cl)cc5)nc5cc[nH]c45)ccc3Cl)cc2C(F)(F)F)CC1` [III-k-13], the GI50 at CCDC6-RET-BaF3 was 1450 nM; at KIF5B-RET-BaF3, 1550 nM. Further, in the test on wild-type BaF3, the IC50 was 1600 nM.
For `Cc1ccc(-c2nc(Oc3ccc(Cl)c(NC(=O)c4ccc(CN5CCN(C)CC5)c(C(F)(F)F)c4)c3)c3c(ccn3C)n2)cc1` [III-k-16], in that order: 2090 nM, 3190 nM and 3630 nM.
For `Cc1ccc(C(=O)Nc2ccc(CN3CCN(C)CC3)c(C(F)(F)F)c2)cc1Oc1nc(-c2ccncc2)nc2ccn(C)c12` [III-m-10], in that order: 544 nM, 1050 nM and 623 nM.
For `Cc1ccc(C(=O)Nc2ccc(CN3CCN(C)CC3)c(C(F)(F)F)c2)cc1Oc1nc(-c2cccnc2)nc2[nH]ncc12` [II-m-20], in that order: 10.6 nM, 74.3 nM and > 10000 nM.
On to `Cc1ccc(C(=O)Nc2ccc(CN3CCN(C)CC3)c(C(F)(F)F)c2)cc1Oc1nc(-c2ccc(Cl)cc2)nc2cc[nH]c12` [III-m-6], for which the GI50 on CCDC6-RET-BaF3 worked out at 3770 nM; at KIF5B-RET-BaF3, 3950 nM. Also, the IC50 with wild-type BaF3 came to 2790 nM.
For `Cc1ccc(C(=O)Nc2cc(CN3CCN(C)CC3)cc(C(F)(F)F)c2)cc1Oc1nc(-c2cccnc2)nc2ccn(C)c12` [III-q-3], the GI50 on CCDC6-RET-BaF3 and on KIF5B-RET-BaF3 was 1400 nM in each case. In addition, the IC50 with wild-type BaF3 is 1380 nM.
Take `CN1CCN(Cc2ccc(C(=O)Nc3cc(Oc4nc(-c5cccnc5)nc5ccn(C)c45)ccc3Cl)cc2C(F)(F)F)CC1` [III-k-3]: the figures for the GI50 on CCDC6-RET-BaF3 and on KIF5B-RET-BaF3 were 1250 nM and 1190 nM, respectively. The IC50 in the test on wild-type BaF3 worked out at 1170 nM.
For `Cc1ccc(C(=O)Nc2ccc(CN3CCN(C)CC3)c(C(F)(F)F)c2)cc1Oc1nc(-c2ccsc2)nc2cc[nH]c12` [III-m-27], in that order: 1400 nM, 1500 nM and 34500 nM.
Regarding `Cc1ccc(Oc2nc(-c3ccc(Cl)cc3)nc3c2ncn3C)cc1NC(=O)c1ccc(CN2CCN(C)CC2)c(C(F)(F)F)c1` [I-j-3], the GI50 at CCDC6-RET-BaF3 came out at 1420 nM; at KIF5B-RET-BaF3 it was 1430 nM. Also, the IC50 in the test on wild-type BaF3 came to 1770 nM.
